Experimental data as given in patent US20220226313A1, “COMBINATION THERAPIES THAT INCLUDE AN AGENT THAT PROMOTES GLUCOSE OXIDATION AND AN INHIBITOR OF PYRUVATE DEHYDROGENASE KINASE” (IMBRIA PHARMACEUTICALS, INC., priority 2019, published 2022).
Several values for one entry are separate records, joined by “and”; a condition that tells them apart may be missing. Equal values may be shown once. Blank lines part the entries; values can stand above or below the molecule they belong to.

Legend:
[1] = stability of CV-8972 in aqueous solution at different concentrations and pH; assay type: physicochemical
Description: The stability of CV-8972 was analyzed. Aqueous samples containing CV-8972 at different concentrations and pH were incubated for various periods and analyzed.
Form A of CV-8972 was analyzed for stability in aqueous solution. Aqueous samples containing CV-8972 at different concentrations and pH were incubated for various periods and analyzed.

[2] = recrystallization to monohydrate of CV-8972, water content by KF; assay type: physicochemical; settings: recrystallized monohydrate of CV-8972, MeOH:MEK with water; theoretical 3.32%
Text: The product was converted to the desired polymorph by recrystallization. The percentage of water and the ratio of methanol:methyl ethyl ketone (MEK) were varied in different batches using 2.5 g of product.
In batch MBA 25, 5% water w/r/t total volume of solvent (23 volumes) containing 30% methano1:70% MEK was used for precipitation. The yield was 67% of monohydrate of CV-8972.
In batch MBA 26, 1.33% water w/r/t total volume of solvent (30 volumes) containing 20% methano1:80% MEK was used for precipitation. […] Water content was determined by KF to be 4.0%.
In batch MBA 27, 3% water w/r/t total volume of solvent (32 volumes) containing 22% methano1:78% MEK was used for precipitation. The yield was 87.22% of monohydrate of CV-8972.
In other batches, the ratio and total volume of solvent were held constant at 20% methano1:80% MEK and 30 volumes in batches using 2.5 g of product, and only the percentage of water was varied.
In batch MBA 29, 1.0 equivalent of water was added. Material was isolated and dried under vacuum at 40° C. for 24 hours. Water content was determined by KF to be 0.89%, showing that the monohydrate form was not forming stoichiometrically.
In batch MBA 30, 3% water was added. Material was isolated and dried under vacuum at 40° C. for 24 hours.
In batch MBA 31, 5% water was added. Material was isolated and dried under vacuum at 40° C. for 24 hours. Water content was determined by KF to be 3.30%, showing that monohydrate is forming with addition of excess water.

[3] = test system: isolated hearts after ischemia-reperfusion; assay: ischemia-reperfusion (IR), infarct size by TTC staining; assay type: in vivo, mice; settings: composite image data, mean of the group's hearts
Description: FIG. 38 is a schematic of the ischemia-reperfusion (IR) method used to analyze the effects of selected compositions on coronary flow, cardiac function, and infarct size. […] At 20 minutes, ischemia was induced, and coronary flow was analyzed. At 50 minutes, reperfusion was initiated to restore blood flow. At 170 minutes, coronary flow and cardiac function was analyzed, and then the hearts were preserved, sectioned, and infarct size was measured by triphenyltetrazolium chloride (TTC) staining. […] FIG. 42 is graph of infarct size after IR.

[4] = test system: isolated hearts after ischemia-reperfusion; assay: ischemia-reperfusion (IR), cardiac function (LVDP); assay type: in vivo, mice; settings: group mean
[5] = test system: isolated hearts after ischemia-reperfusion; assay: ischemia-reperfusion (IR), coronary flow; assay type: in vivo, mice; settings: ratio of flow at 170 minutes to flow at 20 minutes
Description: FIG. 38 is a schematic of the ischemia-reperfusion (IR) method used to analyze the effects of selected compositions on coronary flow, cardiac function, and infarct size. […] At 20 minutes, ischemia was induced, and coronary flow was analyzed. At 50 minutes, reperfusion was initiated to restore blood flow. At 170 minutes, coronary flow and cardiac function was analyzed, and then the hearts were preserved, sectioned, and infarct size was measured by triphenyltetrazolium chloride (TTC) staining. FIG. 39 is a graph of coronary flow of after IR.

KF result (% of water) [2]: 4.00% | KF result (Sample after drying at 40° C. for 24 hours) [2]: 3.75%
Compound: COc1ccc(CN2CCN(CCOC(=O)c3cccnc3)CC2)c(OC)c1OC.Cl.Cl.Cl.O [Sample 289-MBA-26]

KF result (% of water) [2]: 3.93% | KF result (Sample after drying at 40° C. for 24 hours) [2]: 3.54%
Compound: COc1ccc(CN2CCN(CCOC(=O)c3cccnc3)CC2)c(OC)c1OC.Cl.Cl.Cl.O [Sample 289-MBA-27]

KF result (Sample after drying at 40° C. for 24 hours) [2]: 0.89%
Compound: COc1ccc(CN2CCN(CCOC(=O)c3cccnc3)CC2)c(OC)c1OC.Cl.Cl.Cl.O [Sample 289-MBA-29]

KF result (Sample after drying at 40° C. for 24 hours) [2]: 3.51%
Compound: COc1ccc(CN2CCN(CCOC(=O)c3cccnc3)CC2)c(OC)c1OC.Cl.Cl.Cl.O [Sample 289-MBA-30]

KF result (Sample after drying at 40° C. for 24 hours) [2]: 3.30%
Compound: COc1ccc(CN2CCN(CCOC(=O)c3cccnc3)CC2)c(OC)c1OC.Cl.Cl.Cl.O [Sample 289-MBA-31]

Second part, the molecule before the results:

Compound: COc1ccc(CN2CCN(CCOC(=O)c3cccnc3)CC2)c(OC)c1OC.Cl.Cl.Cl.O [Sample 276-MBA-172]
Retention Time 5.6 (purity of CV-8972) ([1]; 2 mg/mL pH 6, 0 hrs): 98.01 | Retention Time 5.6 (purity of CV-8972) ([1]; 2 mg/mL pH 7, 0 hrs): 97.53 | Retention Time 5.6 (purity of CV-8972) ([1]; 10 mg/mL pH 6, 0 hrs): 95.24 | Retention Time 5.6 (purity of CV-8972) ([1]; 10 mg/mL pH 7, 0 hrs): 92.85

Compound: COc1ccc(CN2CCN(CCOC(=O)c3cccnc3)CC2)c(OC)c1OC.Cl.Cl.Cl.O [Sample 289-MBA-25]
KF result (% of water) [2]: 3.46%

Compound: COc1ccc(CN2CCNCC2)c(OC)c1OC [TMZ, trimetazidine]
IS/LV, Mean [3]: 56% | left ventricular developed pressure (LVDP), T20 Mean ([4]; Table 6, at 20 minutes): 55.86 | left ventricular developed pressure (LVDP), T170 Mean ([4]; Table 6, at 170 minutes): 48.91 | CF170/CF20 ([5]; group MEAN): 4.02E+01 ul/ml | CF170/CF20 ([5]; individual heart): 2.42E+01 ul/ml and 5.87E+01 ul/ml and 3.57E+01 ul/ml and 3.37E+01 ul/ml and 5.21E+01 ul/ml and 2.73E+01 ul/ml and 2.60E+01 ul/ml and 6.39E+01 ul/ml
